Test results: patent EP4553080A1, “NUCLEOSIDE DERIVATIVES AS ANTIVIRAL AGENTS AGAINST CORONAVIRUSES” (Ustav Organicke Chemie a Biochemie AV CR, v.v.i., priority 2023, dated 2025)
Where two headings read alike, the source gives them in different places.

Biological target: nsp14 methyltransferase from SARS-CoV-2 (Severe acute respiratory syndrome coronavirus 2, UniProt P0DTD1)
Assay: Nsp14 MTase activity inhibition in vitro (EchoMS assay)
Type: biochemical
[1] = recombinant nsp14 protein expressed in E. coli, dose-response curve

Structure (SMILES)	IC50 [1] [nM]	IC50 [nM]
CCc1onc(-c2ccccc2)c1CSC[C@H]1O[C@@H](n2ccc3c(N)ncnc32)[C@H](O)[C@@H]1O [Compound 106c, (2R,3R,4S,5S)-2-(4-Amino-7H-pyrrolo[2,3-d]pyrimidin-7-yl)-5-((((5-ethyl-3-phenyllsoxazol-4-yl)methyl)thio)methyl)tetrahydrofuran-3,4-diol]	100 to 500	
Cc1noc(-c2ccccc2)c1CSC[C@H]1O[C@@H](n2cc(C#N)c3c(N)ncnc32)[C@H](O)[C@@H]1O [Compound 138b, 4-Amino-7-((2R,3R,4S,5S)-3,4-dihydroxy-5-((((3-methyl-5-phenylisoxazol-4-yl)methyl)thio)methyl)tetrahydrofuran-2-yl)-7H-pyrrolo[2,3-d]pyrimidine-5-carbonitrile]	30 to 100	
Cc1ccnc(-c2ccccc2)c1CSC[C@H]1O[C@@H](n2ccc3c(N)ncnc32)[C@H](O)[C@@H]1O [Compound 62c, (2R,3R,4S,5S)-2-(4-Amino-7H-pyrrolo[2,3-d]pyrimidin-7-yl)-5-((((4-methyl-2-phenylpyridin-3-yl)methyl)thio)methyl)tetrahydrofuran-3,4-diol]	500 to 2000	
CC(C)c1onc(-c2ccccc2)c1CSC[C@H]1O[C@@H](n2ccc3c(N)ncnc32)[C@H](O)[C@@H]1O [Compound 107c, (2R,3R,4S,5S)-2-(4-Amino-7H-pyrrolo[2,3-d]pyrimidin-7-yl)-5-((((5-isopropyl-3-phenylisoxazol-4-yl)methyl)thio)methyl)tetrahydrofuran-3,4-diol]	500 to 2000	
Cc1noc(-c2ccccc2)c1CSC[C@H]1O[C@@H](n2cc(C3C[C@@H]4CC[C@H]3C4)c3c(N)ncnc32)[C@H](O)[C@@H]1O (stereo in doubt) [Compound 136b, (2R,3R,4S,5S)-2-(4-Amino-5-((1S,4R)-bicyclo[2.2.1]heptan-2-yl)-7H-pyrrolo[2,3-d]pyrimidin-7-yl)-5-((((3-methyl-5-phenylisoxazol-4-yl)methyl)thio)methyl)tetrahydrofuran-3,4-diol]	100 to 500	
Cc1noc(-c2ccccc2)c1CSC[C@H]1O[C@@H](n2cc(-c3ccc(N)cc3)c3c(N)ncnc32)[C@H](O)[C@@H]1O [Compound 157]	30 to 100	
Cc1noc(-c2ccc3c(c2)OCO3)c1CSC[C@H]1O[C@@H](n2ccc3c(N)ncnc32)[C@H](O)[C@@H]1O [Compound 96c, (2R,3R,4S,5S)-2-(4-Amino-7H-pyrrolo[2,3-d]pyrimidin-7-yl)-5-((((5-(benzo[d][1,3]dioxol-5-yl)-3-methylisoxazol-4-yl)methyl)thio)methyl)tetrahydrofuran-3,4-diol]	10 to 30	
Cc1nccc(-c2ccccc2)c1CSC[C@H]1O[C@@H](n2ccc3c(N)ncnc32)[C@H](O)[C@@H]1O [Compound 50c, (2R,3R,4S,5S)-2-(4-Amino-7H-pyrrolo[2,3-d]pyrimidin-7-yl)-5-((((2-methyl-4-phenylpyridin-3-yl)methyl)thio)methyl)tetrahydrofuran-3,4-diol]	100 to 500	
COc1ccc(-c2nc(C)c(CSC[C@H]3O[C@@H](n4ccc5c(N)ncnc54)[C@H](O)[C@@H]3O)c(-c3ccccc3)n2)cc1OC [Compound 119c, (2R,3R,4S,5S)-2-(4-Amino-7H-pyrrolo[2,3-d]pyrimidin-7-yl)-5-((((2-(3,4-dimethoxyphenyl)-4-methyl-6-phenylpyrimidin-5-yl)methyl)thio)methyl)tetrahydrofuran-3,4-diol]	30 to 100	
Cc1noc(-c2ccc3c(c2)OCO3)c1CSC[C@H]1O[C@@H](n2cc(C#Cc3cncnc3)c3c(N)ncnc32)[C@H](O)[C@@H]1O [Compound 243c, (2R,3R,4S,5S)-2-(4-Amino-5-(pyrimidin-5-ylethynyl)-7H-pyrrolo[2,3-d]pyrimidin-7-yl)-5-((((5-(benzo[d][1,3]dioxol-5-yl)-3-methylisoxazol-4-yl)methyl)thio)methyl)tetrahydrofuran-3,4-diol]	10 to 30	
Cc1noc(-c2ccccc2)c1CSC[C@H]1O[C@@H](n2cc(C#Cc3ccc(C(N)=O)cc3)c3c(N)ncnc32)[C@H](O)[C@@H]1O [Compound 169b, 4-((4-Amino-7-((2R,3R,4S,5S)-3,4-dihydroxy-5-((((3-methyl-5-phenylisoxazol-4-yl)methyl)thio)methyl)tetrahydrofuran-2-yl)-7H-pyrrolo[2,3-d]pyrimidin-5-yl)ethynyl)benzamide]	30 to 100	
Cc1noc(-c2ccccc2)c1CSC[C@H]1O[C@@H](n2cc(CC(C)C)c3c(N)ncnc32)[C@H](O)[C@@H]1O [Compound 131b, (2R,3R,4S,5S)-2-(4-Amino-5-isobutyl-7H-pyrrolo[2,3-d]pyrimidin-7-yl)-5-((((3-methyl-5-phenylisoxazol-4-yl)methyl)thio)methyl)tetrahydrofuran-3,4-diol]	100 to 500	
Cc1noc(-c2ccccc2)c1CSC[C@H]1O[C@@H](n2cc(Sc3ccccc3)c3c(N)ncnc32)[C@H](O)[C@@H]1O [Compound 189b, (2R,3R,4S,5S)-2-(4-Amino-5-(phenylthio)-7H-pyrrolo[2,3-d]pyrimidin-7-yl)-5-((((3-methyl-5-phenylisoxazol-4-yl)methyl)thio)methyl)tetrahydrofuran-3,4-diol]	30 to 100	
Cc1noc(-c2ccccc2)c1CSC[C@H]1O[C@@H](n2cc(C3=CCC(C#N)CC3)c3c(N)ncnc32)[C@H](O)[C@@H]1O (stereo partly drawn) [Compound 141b, 4-(4-Amino-7-((2R,3R,4S,5S)-3,4-dihydroxy-5-((((3-methyl-5-phenyhsoxazol-4-yl)methyl)thio)methyl)tetrahydrofuran-2-yl)-7H-pyrrolo[2,3-d]pyrimidin-5-yl)cyclohex-3-ene-1-carbonitrile]	10 to 30	
CCC(C)c1cn([C@@H]2O[C@H](CSCc3c(C)noc3-c3ccccc3)[C@@H](O)[C@H]2O)c2ncnc(N)c12 (stereo partly drawn) [Compound 130b, (2R,3R,4S,5S)-2-(4-Amino-5-(sec-butyl)-7H-pyrrolo[2,3-d]pyrimidin-7-yl)-5-((((3-methyl-5-phenylisoxazol-4-yl)methyl)thio)methyl)tetrahydrofuran-3,4-diol]	100 to 500	
Cc1noc(-c2ccc3c(c2)OCO3)c1CSC[C@H]1O[C@@H](n2nc(-c3ccc(CC#N)cc3)c3c(N)ncnc32)[C@H](O)[C@@H]1O [Compound 226, 2-(4-(4-Amino-1-((2R,3R,4S,5S)-5-((((5-(benzo[d][1,3]dioxol-5-yl)-3-methylisoxazol-4-yl)methyl)thio)methyl)-3,4-dihydroxytetrahydrofuran-2-yl)-1H-pyrazolo[3,4-d]pyrimidin-3-yl)phenyl)acetonitrile]	10 to 30	
Cc1noc(Cc2ccccc2)c1CSC[C@H]1O[C@@H](n2ccc3c(N)ncnc32)[C@H](O)[C@@H]1O [Compound 99c, (2R,3R,4S,5S)-2-(4-Amino-7H-pyrrolo[2,3-d]pyrimidin-7H-yl)-5-((((5-benzyl-3-methylisoxazol-4-yl)methyl)thio)methyl)tetrahydrofuran-3,4-diol]		2000 to 5000
Cc1noc(-c2ccccc2)c1CSC[C@H]1O[C@@H](n2cc(C3CCCC3)c3c(N)ncnc32)[C@H](O)[C@@H]1O [Compound 133b, (2R,3R,4S,5S)-2-(4-Amino-5-cyclopentyl-7H-pyrrolo[2,3-d]pyrimidin-7-yl)-5-((((3-methyl-5-phenylisoxazol-4-yl)methyl)thio)methyl)tetrahydrofuran-3,4-diol]	100 to 500	
Cc1snc(-c2ccccc2)c1CSC[C@H]1O[C@@H](n2ccc3c(N)ncnc32)[C@H](O)[C@@H]1O [Compound 59c, (2R,3R,4S,5S)-2-(4-Amino-7H-pyrrolo[2,3-d]pyrimidin-7-yl)-5-((((5-methyl-3-phenylisothiazol-4-yl)methyl)thio)methyl)tetrahydrofuran-3,4-diol]	30 to 100	
Cn1ncc(-c2ccccc2)c1CSC[C@H]1O[C@@H](n2ccc3c(N)ncnc32)[C@H](O)[C@@H]1O [Compound 60c, (2R,3R,4S,5S)-2-(4-Amino-7H-pyrrolo[2,3-d]pyrimidin-7-yl)-5-((((1-methyl-4-phenyl-1H-pyrazol-5-yl)methyl)thio)methyl)tetrahydrofuran-3,4-diol]	30 to 100	
C=Cc1cn([C@@H]2O[C@H](CSCc3c(C)noc3-c3ccccc3)[C@@H](O)[C@H]2O)c2ncnc(N)c12 [Compound 139b, (2R,3R,4S,5S)-2-(4-Amino-5-vinyl-7H-pyrrolo[2,3-d]pyrimidin-7-yl)-5-((((3-methyl-5-phenylisoxazol-4-yl)methyl)thio)methyl)tetrahydrofuran-3,4-diol]	500 to 2000	
Cc1noc(-c2ccccc2)c1CSC[C@H]1O[C@@H](n2cc(-c3ccc4nc[nH]c4c3)c3c(N)ncnc32)[C@H](O)[C@@H]1O [Compound 151, (2R,3R,4S,5S)-2-(4-Amino-5-(1H-benzo[d]imidazol-6-yl)-7H-pyrrolo[2,3-d]pyrimidin-7-yl)-5-((((3-methyl-5-phenylisoxazol-4-yl)methyl)thio)methyl)tetrahydrofuran-3,4-diol]	30 to 100	
Cc1nsc(-c2ccccc2)c1CSC[C@H]1O[C@@H](n2ccc3c(N)ncnc32)[C@H](O)[C@@H]1O [Compound 54c, (2R,3R,4S,5S)-2-(4-Amino-7H-pyrrolo[2,3-d]pyrimidin-7-yl)-5-((((3-methyl-5-phenylisothiazol-4-yl)methyl)thio)methyl)tetrahydrofuran-3,4-diol]	30 to 100	
Cc1noc(-c2ccccc2)c1CSC[C@H]1O[C@@H](n2cc(-c3cncn3C)c3c(N)ncnc32)[C@H](O)[C@@H]1O [Compound 155, (2R,3R,4S,5S)-2-(4-Amino-5-(1-methyl-1H-imidazol-5-yl)-7H-pyrrolo[2,3-d]pyrimidin-7-yl)-5-((((3-methyl-5-phenylisoxazol-4-yl)methyl)thio)methyl)tetrahydrofuran-3,4-diol]	30 to 100	
Cc1noc(-c2cscn2)c1CSC[C@H]1O[C@@H](n2ccc3c(N)ncnc32)[C@H](O)[C@@H]1O [Compound 101c, (2R,3R,4S,5S)-2-(4-Amino-7H-pyrrolo[2,3-d]pyrimidin-7-y1)-5-((((3-methyl-5-(thiazol-4-y1)isoxazo1-4-yl)methyl)thio)methyl)tetrahydrofuran-3,4-diol]	30 to 100	
Cc1noc(-c2ccccc2)c1CSC[C@H]1O[C@@H](n2cc(I)c3c(N)ncnc32)[C@H](O)[C@@H]1O [Compound 123, (2R,3R,4S,5S)-2-(4-Amino-5-iodo-7H-pyrrolo[2,3-d]pyrimidin-7-yl)-5-((((3-methyl-5-phenylisoxazol-4-yl)methyl)thio)methyl)tetrahydrofuran-3,4-diol]	30 to 100	
